This is an account of results in article PMC4913896, “Bioactivity-Guided Identification of Botanical Inhibitors of Ketohexokinase” (PLoS ONE, 2016).

A word on the IC50: it is the point on the concentration scale where inhibition reaches its midpoint. Broadly, the inhibition is the share of the control response that was lost under treatment.

The experiment has as its target T1, recombinant human KHKC (Homo sapiens, UniProt P50053).
T1 construct: Profinity eXact fusion tag (N, cleaved yes); made in house; host or cells: E. coli BL21 (DE3), vector pPAL8; cDNA from Hep G2 cells
T1 sequence (P50053 1-298): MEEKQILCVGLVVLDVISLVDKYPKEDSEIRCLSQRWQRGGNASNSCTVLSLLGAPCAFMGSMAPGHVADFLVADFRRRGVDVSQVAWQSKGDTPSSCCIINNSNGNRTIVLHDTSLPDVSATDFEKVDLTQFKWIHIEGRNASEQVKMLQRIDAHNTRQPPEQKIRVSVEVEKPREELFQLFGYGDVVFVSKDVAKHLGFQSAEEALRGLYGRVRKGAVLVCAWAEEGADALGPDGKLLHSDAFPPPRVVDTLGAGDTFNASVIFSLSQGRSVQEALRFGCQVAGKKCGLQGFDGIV
The experiment can be described thus: High throughput cell-free recombinant KHKC enzymatic assay (3-step reaction, decrease in NADH at A340nm). The class given is biochemical. The note with it: for inhibition at 50 µM: read-out: KHKC Inhibition (%). On the procedure: Botanical extracts and phytochemicals were screened for their inhibitory activity using a high throughput cell-free enzymatic assay that utilized recombinant KHKC. KHKC activity was assayed with a 3-step reaction (Fig 2). The Synergy 2 multi-mode microplate reader was used to measure the decrease in NADH at A340nm (BioTek Instruments, Inc., Winooski, VT). For screening of the botanical extracts and phytochemicals, the KHKC enzymatic assay was carried out at 37°C in a total reaction volume of 200 ul containing 50 mM PIPES, 6 mM MgCl2, 100 mM KCl, 5 mM ATP, 2 mM phosphoenolpyruvate, 0.3 mM NADH, 15 U of pyruvate kinase, 15 U of lactate dehydrogenase, and 75 ng KHKC. The botanical extracts (50 μg/mL) and phytochemicals (50 μM) were preincubated in the reaction mixture for 15 min at 37°C. Afterwards, 1 mM fructose was added to the reactions, except for the no fructose controls, and A340nm data were collected every minute for 1 hr. The changes in absorbance were calculated for all samples based on the linear phase of the reactions and adjusted for the no fructose controls. Compared to the fructose only controls (1 mM fructose, no inhibitors), percentage inhibition of KHKC for each sample was calculated. […] For phytochemicals that inhibited KHKC by at least 40%, dose responses were conducted from 0.05 to 100 μM. IC50s against KHKC were calculated. 4-(hydroxymercuri) benzoic acid sodium salt was used as a positive inhibitory control of KHKC [36]. All chemicals were purchased from Sigma-Aldrich (St. Louis, MO).
Recombinant human KHKC proteins: Recombinant human KHKC was produced using the Profinity eXact fusion-tag system (Bio-Rad Laboratories, Hercules, CA). RNA were isolated from Hep G2 cells. CDNA was generated using 1 μg of RNA (iScript cDNA synthesis kit, Bio-Rad Laboratories). The coding sequences of KHKC were amplified using iProof high-fidelity DNA polymerase (Bio-Rad Laboratories). The following primers were used: forward primer = 5’…[…]…3’ and reverse primer = 5’…[…]…3’. The amplicons were ligated into pPAL8, a bacterial expression vector. Sequencing, performed by Beckman Coulter Genomics (Danvers, MA), confirmed that the coding sequences of the KHKC clones were a match to the National Center for Biotechnology Information’s reference sequence. The clones were transformed into BL21 (DE3) chemi-competent expression cells (Bio-Rad Laboratories). E. coli cultures were grown at 37°C in terrific broth media containing 100 μg/mL ampicillin. When the cell density (OD600) reached 0.5–0.7, the expression of KHKC was induced by adding 1 mM isopropyl β-D-1-thiogalactopyranoside. After 3–4 hr incubation, the growth culture was centrifuged at 5,000 g for 10 min at 4°C and the pellet was stored at -80°C.
For protein purification, the bacterial cell pellet was lysed using B-PER in phosphate buffer (Thermo Fisher Scientific Inc., Rockford, IL) containing AEBSF protease inhibitor (EMD Chemicals, Gibbstown, NJ). The lysate was centrifuged at 30,000 x g for 30 min at 4°C to remove cell debris. The supernatant was filtered using a […] syringe filter and then loaded (2.5 mL/min) onto the Bio-Scale Mini Profinity eXact cartridges using the Profinia protein purification instrument (Bio-Rad Laboratories). The column was first washed with 100 mL sodium phosphate, pH 7.0 (10 ml/min, CV = 10) followed by 400 mL sodium phosphate, pH 7.0 (10 ml/min, CV = 15). The protein was eluted with 100 mM sodium phosphate and 100 mM sodium fluoride, pH 7.2 and incubated for 4 hr at 4°C. The tag-less protein was stored in 20% glycerol and frozen at -80°C until use.
GraphPad Prism 5.03 (GraphPad Software, La Jolla, CA) was utilized for the data and statistical analyses. To generate a best fit, an upper concentration (10,000 μg/mL at 100% inhibition) and a lower concentration (0.001 μg/mL at 0% inhibition) were added in order to calculate the IC50s for the inhibition of KHKC and for the inhibition of fructose-induced ATP depletion. […]

The mark [1] stands for this setting: phytochemical library screen, 50 μM, 1 mM fructose.
[2] abbreviates: phytochemicals, dose response 0.05 to 100 μM, read-out: KHKC IC50.

Read-outs that look alike come from different tables or passages of the source.

As to “3,4',5,7-THMethoxy3'-O-B-D-Xylopyranoside”, under setting [1], the “KHKC Inhibition (%)” value is recorded as 63.3%. The IC50 under setting [2] is 3.5 µM.
As for `COc1cc(OC)c2ccc(=O)oc2c1CC=C(C)C` [5,7-Dimethoxy-8-prenylcoumarin], the inhibition at 50 µM under setting [1] came out at 70.4%. The IC50 under setting [2] is 10.3 µM.
For `O=C(O)[C@H]1O[C@@H](Oc2cc(O)c3c(=O)cc(-c4ccc(O)cc4)oc3c2)[C@H](O)[C@@H](O)[C@@H]1O` [Apigenin 7-glucuronide], the “KHKC Inhibition (%)” value under setting [1] is recorded as 53.1%. The 50% inhibitory concentration (IC50) under setting [2] was found to be 16.1 µM.
Consider `O=c1cc(-c2ccc(O)cc2)oc2cc(O[C@@H]3O[C@H](CO)[C@@H](O)[C@H](O)[C@H]3O[C@@H]3OC[C@](O)(CO)[C@H]3O)cc(O)c12` [Apiin], for which the inhibition at 50 µM under setting [1] is 47%. Besides, the half-maximal inhibitory concentration (IC50) under setting [2] came to 21.5 µM.
In the same order, the values of `COc1c(O)cc2c(=O)c3c(O)cc(O)c(CC=C(C)C)c3oc2c1CC=C(C)C` [Cratoxyarborenone E] are 61.7% and 1 µM.
Regarding `CC(C)=CCc1c(O)ccc(C(=O)/C=C/c2ccc(O)cc2)c1O` [Isobavachalcone], the inhibition at 50 µM under setting [1] stood at 44.2%. Besides, under setting [2], the 50% inhibitory concentration (IC50) stood at 5.7 µM.
As to `CC(C)=CCc1c(-c2ccc(O)cc2O)oc2c(CC=C(C)C)c(O)cc(O)c2c1=O` [Mulberrin], the “KHKC Inhibition (%)” value under setting [1] is 61.2%. The IC50 under setting [2] came out at 31.2 µM.
Turning to `COc1c(O)cc2oc(-c3ccccc3)cc(=O)c2c1O` [Oroxylin A], under setting [1], the inhibition at 50 µM turned out to be 42.1%. The IC50 under setting [2] is 8.2 µM.
Turning to `CC(C)=CCc1c(O)ccc2ccc(=O)oc12` [Osthenol], the IC50 amounted to 7.8 µM and the inhibition at 50 µM is 74.1%.
For the molecule `COc1ccc2ccc(=O)oc2c1CC=C(C)C` [Osthole], under setting [1], the inhibition at 50 µM came to 93.4%. Further, the IC50 under setting [2] came to 0.7 µM.
Turning to Flavaspidic acid AB, the “KHKC Inhibition (%)” value under setting [1] was 48.7%. Further, under setting [2], the IC50 was 29.5 µM.
In the case of Methoxy isobavachalcone, the “KHKC Inhibition (%)” value under setting [1] was 70.8%. The IC50 under setting [2] was found to be 0.2 µM.
Turning to Swietenocoumarin B, the “KHKC Inhibition (%)” value under setting [1] worked out at 62.5%. For the same molecule, the half-maximal inhibitory concentration (IC50) under setting [2] was found to be 58.4 µM.
Consider α-/γ-Mangostin, for which the “KHKC Inhibition (%)” value under setting [1] worked out at 90.4%. Further, the half-inhibitory concentration (IC50) under setting [2] is 1.5 µM.
